# From patent publication US9687529B2, “Method of controlling coagulation” (Duke University, priority 2011, dated 2017)
# Assays:
# whole blood = assay: Isolated 25-mL oxygenator circuit (Example II); details: 2 micromolar
# Experimental: FIG. 18 is a photograph of the isolated 25-mL oxygenator circuit, the principal components of which are a 5-mL venous reservoir, a custom-designed polypropylene membrane oxygenator, segments of 1.6 mm internal diameter silicone tubing that connect the oxygenator with the reservoir, and a small roller pump. The oxygenator is constructed of two 10 cm×10 cm rectangular Plexiglas® shells that surround and hold a 9.5 cm×9.5 cm×1 mm polypropylene membrane. Its priming volume is 4 mL. The pump circulates the blood continuously from the reservoir through the oxygenator and back to the reservoir.
# Unpublished experiments have shown that the thrombogenicity of the isolated 25-mL oxygenator circuit resembles the thrombogenicity of a CPB circuit. […] Clot formation occurred approximately 30 minutes after circulation was started. […] In contrast, UFH 5, U/mL, as well as the combination of RNA9.3t, RNA11F7t, and thrombin aptamer both prevented clot formation in blood circulated for 2 hours in the isolated circuit.
# [1] = aptamer/antidote pair; neonatal porcine cardiopulmonary bypass; cited from earlier work
# [2] = Cardiopulmonary bypass on a juvenile pig; format: in vivo; details: 3-hr period of CPB
# FIXa = target: T1, FIXa (Homo sapiens, UniProt P00740); details: clinical studies; cited from earlier work
# T1 construct: host or cells: circulating blood of trial subjects (endogenous protein)
# [3] = tested on: clot formation in normal human platelet poor plasma; assay: Prothrombin time (PT) plasma clotting assay; format: biochemical; details: for increase of PT clotting time: 4 μM aptamer
# Experimental: The activated partial thromboplastin time (aPTT) and prothrombin time (PT) assays were performed on a model ST4 mechanical coagulometer (Diagnostica Stago, Parsippany, N.J.) as previously described (Bompiani et al, J Thromb Haemost 10:870-80 (2012)). For the aPTT, 50 μL of normal human platelet poor plasma (PPP) was incubated with 50 μL TriniClot aPTT S (Trinity BioTech, Bray, Co Wicklow, Ireland) at 37° C. for 5 min. Aptamer(s) (5 μL) was added, and the mixture was incubated at 37° C. for another 5 min, and CaCl2 (50 μL) was added to initiate the assay. For the PT, 50 μL of normal human PPP was incubated with 5 μL of aptamer(s) at 37° C. for 5 min. TriniClot PT Excel reagent (Trinity BioTech, Bray, Co Wicklow, Ireland) (100 μL) was added to initiate the reaction. Assays with a combination of two aptamers contain an equimolar concentration of each individual aptamer, and the data shown are the total RNA concentration.
# To compare the anticoagulant effect of these four aptamers, dose-response titrations were performed in several clinical plasma-based clotting assays. The activated partial thromboplastin time (aPTT) and prothrombin time (PT) are plasma clotting assays that are clinically used to probe for abnormalities in the intrinsic and extrinsic coagulation pathways, respectively (Van Cott et al, editors. Jacobs & DeMott laboratory test handbook. 5th ed. Hudson Ohio: Lexi-Comp. p. 327-58 (2001)). These relatively simple assays measure the time until clot formation in platelet poor plasma (PPP) in response to either robust tissue factor (TF), or contact stimulation via negatively charged surfaces (i.e., silica, kaolin, celite). […] At high concentrations, the prothrombin aptamer (R9D-14T) was the most robust anticoagulant and inhibited greater than 96% of prothrombin activity in the aPTT and PT. At 4 μM, R9D-14T increased the aPTT clotting time approximately 18-fold and the PT clotting time greater than 80-fold (exceeded the assay limit of 999 sec). […] At the same dose, the FIXa aptamer (9.3T) inhibited greater than 99% of FIX activity and increased the aPTT clotting time approximately 5.5-fold, while the FVIIa aptamer (7S-1) increased the PT clotting time 3-fold and inhibited greater than 99% of FVII activity (FIGS. 20A and 20B).
# human prothrombin = human prothrombin (Homo sapiens, UniProt P00734); details: read-out: apparent Kd; cited from earlier work
# T1 sequence (P00740 227-461 limits assumed): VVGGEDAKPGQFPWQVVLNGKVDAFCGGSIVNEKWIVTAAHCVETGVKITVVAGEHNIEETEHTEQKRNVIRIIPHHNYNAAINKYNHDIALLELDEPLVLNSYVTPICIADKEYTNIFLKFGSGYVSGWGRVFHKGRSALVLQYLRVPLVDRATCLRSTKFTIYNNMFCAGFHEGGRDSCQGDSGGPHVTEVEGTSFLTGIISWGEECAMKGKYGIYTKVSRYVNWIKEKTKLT
# T1 sequence (P00740 47-191 partner limits assumed): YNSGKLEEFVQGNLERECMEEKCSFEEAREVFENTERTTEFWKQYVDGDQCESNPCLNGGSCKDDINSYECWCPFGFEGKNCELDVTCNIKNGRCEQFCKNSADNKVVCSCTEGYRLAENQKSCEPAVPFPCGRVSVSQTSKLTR
Substance,clot formation in isolated oxygenator circuit (in words) (whole blood),time of clot formation after circulation was started (whole blood),anticoagulation in CPB model (in words) [1],anticoagulation during CPB (in words) [2],FIXa activity inhibited in vivo (FIXa),increase of PT clotting time [3],"PT clotting time ([3]; 4 μM, assay limit 999 sec)","prothrombin activity inhibited ([3]; PT, high concentrations)",Kd (human prothrombin)
"9.3T: FIXa aptamer, 2'-fluoropyrimidine modified RNA, SEQ ID NO: 1 (AUGGGGACUAUACCGCGUAAUGCUGCCUCCCCAU; 2'-fluoro at CU, RNA at AG, backbone not given here) [Aptamer 9.3T]",failed to prevent clot formation,approximately 30 minutes,sufficiently anticoagulated blood,failed to effect satisfactory anticoagulation,greater than 99%,,,,
"11F7T: FXa aptamer, 2'-fluoropyrimidine modified RNA, SEQ ID NO: 2 (GAGAGCCCCAGCGAGAUAAUACUUGGCCCCGCUCUU; 2'-fluoro at CU, RNA at AG, backbone not given here) [Aptamer 11F7T]",,,,,,approximately 8 fold,,,
"R9D-14T: prothrombin/thrombin aptamer, 58-base truncation of RNA9D-14, SEQ ID NO: 3 (GGCGGTCGATCACACAGTTCAAACGTAATAAGCCAATGTACGAGGCAGACGACTCGCC; 2'-fluoro at CT, RNA at AG, backbone and T or U not given here) [Aptamer R9D-14T]",,,,,,greater than 80 fold,> 999 s,greater than 96%,10 nM
